Drawing on PubChem BioAssay (NCI), this text covers TGI for 15 compounds.

Each structure is given as a SMILES string.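 Each compound was tested at five concentrations against cells in 96-well plates for 48 hours. Definition used: TGI = concentration required for complete inhibition of growth.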 A value given as a limit tells only on which side of the number the result lay.

Among the test systems are OVCAR-5 ovarian; SK-MEL-5 melanoma; T-47D breast; OVCAR-4 ovarian; MDA-MB-231 breast; HOP-62 NSCLC; SF-295 CNS; MOLT-4 leukemia; NCI-H460 lung; HCC-2998 colon.
Common to all, as to assay: inhibition of tumour cell growth, NCI panel, 48 h

`COc1cc2c[n+](C)c3c(c2cc1OC)Cc1cc2c(cc1-3)OCO2`: the TGI in the assay with OVCAR-5 ovarian, in the assay on SK-MEL-5 melanoma, in the assay with T-47D breast, with OVCAR-4 ovarian, in the assay with MDA-MB-231 breast and with HOP-62 NSCLC was above 100 µM in each case. Also, the TGI in the assay with SF-295 CNS and with MOLT-4 leukemia was above 100 µM in each case.
As to `COc1cc(C2c3c(ccc4ccccc34)C(=O)C3CCC(=O)N32)cc(OC)c1O` (stereo not given), the TGI in the assay on OVCAR-5 ovarian, in the assay with T-47D breast, in the assay on NCI-H460 lung, in the assay on OVCAR-4 ovarian, with HOP-62 NSCLC and with SF-295 CNS was above 25 µM in each case. This compound had a TGI in the assay with MOLT-4 leukemia above 25 µM.
In the case of `CCOC(=O)C(OP(=O)(OCC)OCC)C(F)(F)F` (stereo not given), the TGI in the assay on OVCAR-5 ovarian, with T-47D breast, in the assay on NCI-H460 lung, with MDA-MB-231 breast, in the assay on HOP-62 NSCLC and in the assay with MOLT-4 leukemia was above 100 µM throughout. For the same compound, the TGI in the assay with HCC-2998 colon is above 100 µM.
Turning to `CCOC(=O)c1cc(C2CCN(Cc3ccccc3)C2=S)c(C(=O)C=[N+]=[N-])[nH]1` (stereo not given), the TGI with OVCAR-5 ovarian is above 100 µM; in the assay on SK-MEL-5 melanoma, 34.5 µM; in the assay on NCI-H460 lung, 64.1 µM; in the assay on OVCAR-4 ovarian it was above 100 µM; in the assay on MDA-MB-231 breast, above 100 µM; with HOP-62 NSCLC, above 100 µM. Moreover, the figures for the TGI in the assay with SF-295 CNS, in the assay with MOLT-4 leukemia and in the assay on HCC-2998 colon were 66.8 µM, above 100 µM and above 100 µM, respectively.
Take `CCOC(=O)C(CCc1ncnc2c1ncn2Cc1ccccc1)(CCc1ncnc2c1ncn2Cc1ccccc1)C(=O)OCC`: the TGI in the assay with OVCAR-5 ovarian, in the assay with SK-MEL-5 melanoma, in the assay with NCI-H460 lung, with OVCAR-4 ovarian, in the assay with MDA-MB-231 breast and in the assay on HOP-62 NSCLC was above 100 µM each time. Besides, the TGI with SF-295 CNS was above 100 µM; in the assay on MOLT-4 leukemia, above 100 µM; with HCC-2998 colon it was 54.8 µM.
For the compound `C1CN2CCNCCN(CCN1)CC2`, the TGI in the assay on OVCAR-5 ovarian, in the assay with SK-MEL-5 melanoma, with T-47D breast, in the assay with NCI-H460 lung, with OVCAR-4 ovarian and in the assay on MDA-MB-231 breast was above 100 µM throughout. The TGI in the assay on HOP-62 NSCLC, in the assay on SF-295 CNS and with MOLT-4 leukemia was above 100 µM in each case.
For `N#Cc1ccc(C2NN=CC23C(=O)c2ccccc2OC3c2ccccc2)cc1` (stereo not given), the TGI in the assay on OVCAR-5 ovarian is above 100 µM; in the assay with SK-MEL-5 melanoma, 74.8 µM; in the assay with NCI-H460 lung, above 100 µM; in the assay on OVCAR-4 ovarian it was above 100 µM; with MDA-MB-231 breast, above 100 µM; in the assay with HOP-62 NSCLC, above 100 µM. Besides, the TGI with SF-295 CNS, in the assay on MOLT-4 leukemia and with HCC-2998 colon was above 100 µM throughout.
`COc1ccc(/C(=N\Nc2ccccn2)c2ccccn2)cc1`: the TGI in the assay with OVCAR-5 ovarian is 98.9 µM; with SK-MEL-5 melanoma, 11.7 µM; with NCI-H460 lung, 3.08 µM; in the assay on OVCAR-4 ovarian it was 42.9 µM; in the assay on MDA-MB-231 breast, above 74.9 µM; in the assay with HOP-62 NSCLC, 10.4 µM. Moreover, the TGI with SF-295 CNS was 3.54 µM; in the assay on MOLT-4 leukemia it was above 58.3 µM; with HCC-2998 colon, 35.9 µM.
As for `Cc1ccc(-c2cc(-c3ccco3)c(C#N)c(=O)n2C2OC(CO)C(O)C(O)C2O)cc1` (stereo not given), the TGI is above 100 µM in the assay with OVCAR-5 ovarian; 45.7 µM in the assay with SK-MEL-5 melanoma; above 100 µM in the assay on NCI-H460 lung; above 100 µM with OVCAR-4 ovarian; 91.4 µM in the assay on HOP-62 NSCLC; above 100 µM in the assay with SF-295 CNS. In addition, the TGI in the assay with MOLT-4 leukemia and in the assay on HCC-2998 colon was above 100 µM each time.
Regarding `CC1=C2C3OC(=O)C(C)C3CCC2(C)C=CC1=Nc1ccccc1` (stereo not given), the TGI in the assay on OVCAR-5 ovarian, in the assay on SK-MEL-5 melanoma, with NCI-H460 lung, in the assay with OVCAR-4 ovarian, with HOP-62 NSCLC and in the assay on SF-295 CNS was above 100 µM each time. Moreover, the TGI in the assay with MOLT-4 leukemia and in the assay on HCC-2998 colon was above 100 µM throughout.
Consider `CC1=CCC2CC1NC(=O)CCOCCC(=O)NC2(C)C` (stereo not given), for which the TGI in the assay on OVCAR-5 ovarian, with SK-MEL-5 melanoma, in the assay with NCI-H460 lung, in the assay on OVCAR-4 ovarian, in the assay on MDA-MB-231 breast and in the assay with SF-295 CNS was above 100 µM each time. For the same compound, the TGI with MOLT-4 leukemia and in the assay on HCC-2998 colon was above 100 µM in each case.
`Cc1cccc2c1c(=O)c1c(O)cc(O)cc1n2C`: the TGI with OVCAR-5 ovarian, in the assay on SK-MEL-5 melanoma, in the assay with NCI-H460 lung, in the assay with OVCAR-4 ovarian, in the assay with MDA-MB-231 breast and in the assay on HOP-62 NSCLC was above 100 µM each time. Further, the TGI in the assay with SF-295 CNS, in the assay on MOLT-4 leukemia and with HCC-2998 colon was above 100 µM throughout.
`CN(C(=O)c1ccc(OCCCC(=O)O)c(Cl)c1Cl)C1CCCC1`: the TGI in the assay with OVCAR-5 ovarian, with SK-MEL-5 melanoma, in the assay with NCI-H460 lung, in the assay with OVCAR-4 ovarian, in the assay with HOP-62 NSCLC and with SF-295 CNS was above 100 µM throughout. For the same compound, the TGI in the assay on MOLT-4 leukemia and in the assay on HCC-2998 colon was above 100 µM throughout.
Take `COC(=O)C1=C(CCC[C@H](C)O[Si](C)(C)C(C)(C)C)NC(=O)N2[C@@H](CCO)CC[C@H]12`: the TGI was 33.7 µM in the assay on OVCAR-5 ovarian; 21 µM in the assay on SK-MEL-5 melanoma; 32.9 µM in the assay with T-47D breast; 47.4 µM with NCI-H460 lung; 38.2 µM with OVCAR-4 ovarian; 31.9 µM in the assay with MDA-MB-231 breast. Also, the figures for the TGI in the assay on HOP-62 NSCLC, in the assay with SF-295 CNS and in the assay with MOLT-4 leukemia were 27.7 µM, 25.1 µM and above 100 µM, respectively.
For the compound `O=C(C/C=C/c1ccccc1)c1ccccc1`, the TGI with OVCAR-5 ovarian is above 100 µM; in the assay with SK-MEL-5 melanoma, 40.8 µM; in the assay with T-47D breast, 42.7 µM; in the assay with NCI-H460 lung it was 60.6 µM; with HOP-62 NSCLC it was 73.7 µM; with SF-295 CNS it was above 100 µM. The TGI in the assay with MOLT-4 leukemia stood at 61.6 µM; in the assay with HCC-2998 colon it was 33.4 µM.
